In patent publication US20160130278A1 (TAISHO PHARMACEUTICAL CO., LTD, priority 2013, published 2016):
pIC50: −log10 of the molar value.

Each compound was assayed against T1, human type 1 glycine transporter (GlyT1) (Homo sapiens, UniProt P48067) (assay: Glycine uptake inhibition experiment ([3H]glycine uptake)). Conditions: GlyT1.
T1 construct: T98G cells (glioma cells) expressing human type 1 glycine transporter (GlyT1) were used
T1 sequence (P48067 1-706): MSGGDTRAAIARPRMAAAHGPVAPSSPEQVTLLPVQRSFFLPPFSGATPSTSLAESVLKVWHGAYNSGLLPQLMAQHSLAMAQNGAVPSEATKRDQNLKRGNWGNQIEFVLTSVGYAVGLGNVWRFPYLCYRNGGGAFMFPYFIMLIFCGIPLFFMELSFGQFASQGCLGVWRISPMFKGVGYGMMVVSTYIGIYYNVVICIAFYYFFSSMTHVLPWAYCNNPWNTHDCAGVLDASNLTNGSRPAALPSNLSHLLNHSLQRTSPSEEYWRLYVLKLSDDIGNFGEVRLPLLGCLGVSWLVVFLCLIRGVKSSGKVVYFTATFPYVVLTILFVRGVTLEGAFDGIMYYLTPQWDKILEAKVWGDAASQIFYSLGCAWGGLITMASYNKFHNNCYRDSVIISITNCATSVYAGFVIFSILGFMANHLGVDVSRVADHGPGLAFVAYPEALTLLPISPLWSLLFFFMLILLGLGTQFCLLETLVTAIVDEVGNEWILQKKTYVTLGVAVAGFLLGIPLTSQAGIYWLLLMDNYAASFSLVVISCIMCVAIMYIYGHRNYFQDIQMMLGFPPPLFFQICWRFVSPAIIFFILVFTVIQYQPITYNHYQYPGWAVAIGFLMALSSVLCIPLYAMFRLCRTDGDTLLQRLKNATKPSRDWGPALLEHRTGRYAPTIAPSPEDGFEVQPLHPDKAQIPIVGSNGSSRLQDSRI
Type: cell-based
In short: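 T98G glioma cells expressing human GlyT1 were pretreated 10 min with compound in HEPES buffer pH 7.4 (0.2% BSA), then incubated with compound plus 250 nM final [3H]glycine for 15 min at room temperature. Intracellular radioactivity was counted after NaOH lysis; 10 μM ALX5407 defined non-specific uptake. IC50 came from 10^−9–10^−5 M curves.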
`CC(=O)c1ccc(-c2cccc(C(NC(=O)c3cccc(C(F)(F)F)c3Cl)C3(O)CCCC3)c2)cc1` (centres unmarked) [Compound 6, N-[(4′-acetylbiphenyl-3-yl)(1-hydroxycyclopentyl)methyl]-2-chloro-3-(trifluoromethyl)benzamide] was tested, and the pIC50 was 6.17.
With `O=C(NC(c1cccc(-c2cncnc2)c1)C1(O)CCCC1)c1cccc(C(F)(F)F)c1Cl` (centres unmarked) [Compound 7, 2-chloro-N-{(1-hydroxycyclopentyl)[3-(pyrimidin-5-yl)phenyl]methyl}-3-(trifluoromethyl)benzamide] the pIC50 was 6.54.
In the case of `N#Cc1cccc(C(NC(=O)c2cccc(C(F)(F)F)c2Cl)C2(O)CCCC2)c1` (centres unmarked) [Compound 8, 2-chloro-N-[(3-cyanophenyl)(1-hydroxycyclopentyl)methyl]-3-(trifluoromethyl)benzamide], the pIC50 was 6.40.
Work on `O=C(NC(c1cccc(-c2cn[nH]c2)c1)C1(O)CCCC1)c1cccc(C(F)(F)F)c1Cl` (centres unmarked) [Compound 9, 2-chloro-N-{(1-hydroxycyclopentyl)[3-(1H-pyrazol-4-yl)phenyl]methyl}-3-(trifluoromethyl)benzamide] yielded a pIC50 of 6.96.
With `CCn1cc(-c2cccc(C(NC(=O)c3nccc(C(F)(F)F)c3Cl)C3(O)CCCC3)c2)cn1` (centres unmarked) [Compound 10, 3-chloro-N-{[3-(1-ethyl-1H-pyrazol-4-yl)phenyl](1-hydroxycyclopentyl)methyl}-4-(trifluoromethyl)pyridine-2-carboxamide] the pIC50 was 7.89.
`O=C(NC(c1ccccc1)C1(O)CCCC1)c1cccc(C(F)(F)F)c1Cl` (centres unmarked) [Compound 11, 2-chloro-N-[(1-hydroxycyclopentyl)(phenyl)methyl]-3-(trifluoromethyl)benzamide] showed a pIC50 of 6.00.
For `O=C(NC(c1ccccc1)C1(O)CCCC1)c1nccc(C(F)(F)F)c1Cl` (centres unmarked) [Compound 12, 3-chloro-N-[(1-hydroxycyclopentyl)(phenyl)methyl]-4-(trifluoromethyl)pyridine-2-carboxamide], the pIC50 was 6.32.
With `CCn1cc(-c2cccc(C(NC(=O)c3nccc(C(F)(F)F)c3Cl)C3(O)CCCCC3)c2)cn1` (centres unmarked) [Compound 15, 3-chloro-N-{[3-(1-ethyl-1H-pyrazol-4-yl)phenyl](1-hydroxycyclohexyl)methyl}-4-(trifluoromethyl)pyridine-2-carboxamide] the pIC50 was 8.07.
For `CCn1cc(-c2cccc(C(NC(=O)c3cccc(C(F)(F)F)c3Cl)C3(O)CCCCC3)c2)cn1` (centres unmarked) [Compound 16, 2-chloro-N-{[3-(1-ethyl-1H-pyrazol-4-yl)phenyl](1-hydroxycyclohexyl)methyl}-3-(trifluoromethyl)benzamide], the pIC50 was 7.36.
For `O=C(NC(c1cccc(-c2cn[nH]c2)c1)C1(O)CCCC1)c1nccc(C(F)(F)F)c1Cl` (centres unmarked) [Compound 17, 3-chloro-N-{(1-hydroxycyclopentyl)[3-(1H-pyrazol-4-yl)phenyl]methyl}-4-(trifluoromethyl)pyridine-2-carboxamide], the pIC50 was 7.85.
`O=C(NC(c1cccc(-c2cncnc2)c1)C1(O)CCCC1)c1nccc(C(F)(F)F)c1Cl` (centres unmarked) [Compound 18, 3-chloro-N-{(1-hydroxycyclopentyl)[3-(pyrimidin-5-yl)phenyl]methyl}-4-(trifluoromethyl)pyridine-2-carboxamide] showed a pIC50 of 7.04.
`O=C(NC(c1cccc(-c2ccncc2)c1)C1(O)CCCC1)c1nccc(C(F)(F)F)c1Cl` (centres unmarked) [Compound 19, 3-chloro-N-{(1-hydroxycyclopentyl)[3-(pyridin-4-yl)phenyl]methyl}-4-(trifluoromethyl)pyridine-2-carboxamide] was tested, and the pIC50 was 7.47.
`O=C(NC(c1cccc(-c2cccnc2)c1)C1(O)CCCC1)c1nccc(C(F)(F)F)c1Cl` (centres unmarked) [Compound 20, 3-chloro-N-{(1-hydroxycyclopentyl)[3-(pyridin-3-yl)phenyl]methyl}-4-(trifluoromethyl)pyridine-2-carboxamide] gave a pIC50 of 7.77.
`CCn1cc(-c2cccc(C(NC(=O)c3ncccc3Cl)C3(O)CCCC3)c2)cn1` (centres unmarked) [Compound 21, 3-chloro-N-{[3-(1-ethyl-1H-pyrazol-4-yl)phenyl](1-hydroxycyclopentyl)methyl}pyridine-2-carboxamide] gave a pIC50 of 5.34.
With `CCn1cc(-c2cccc(C(NC(=O)c3nccc4ccccc34)C3(O)CCCC3)c2)cn1` (centres unmarked) [Compound 22, N-{[3-(1-ethyl-1H-pyrazol-4-yl)phenyl](1-hydroxycyclopentyl)methyl}isoquinoline-1-carboxamide] the pIC50 was 6.96.
With `N#Cc1cccc(C(NC(=O)c2nccc(C(F)(F)F)c2Cl)C2(O)CCCC2)c1` (centres unmarked) [Compound 23, 3-chloro-N-[(3-cyanophenyl)(1-hydroxycyclopentyl)methyl]-4-(trifluoromethyl)pyridine-2-carboxamide] the pIC50 was 6.52.
`O=C(NC(c1cccc(-c2cccnc2)c1)C1(O)CCCCC1)c1nccc(C(F)(F)F)c1Cl` (centres unmarked) [Compound 26, 3-chloro-N-{(hydroxycyclohexyl)[3-(pyridin-3-yl)phenyl]methyl}-4-(trifluoromethyl)pyridine-2-carboxamide] gave a pIC50 of 7.10.
`COc1cc(C(F)(F)F)cc(C(F)(F)F)c1C(=O)NC(c1ccccc1)C1(O)CCCC1` (centres unmarked) [Compound 29, N-[(1-hydroxycyclopentyl)(phenyl)methyl]-2-methoxy-4,6-bis(trifluoromethyl)benzamide] showed a pIC50 of 5.70.
`Cc1cccc(C)c1C(=O)NC(c1ccccc1)C1(O)CCCC1` (centres unmarked) [Compound 30, N-[(1-hydroxycyclopentyl)(phenyl)methyl]-2,6-dimethylbenzamide] was tested, and the pIC50 was 5.19.
With `O=C(NC(c1cccc(Br)c1)C1(O)CCCC1)c1nccc(C(F)(F)F)c1Cl` (centres unmarked) [Compound 31, N-[(3-bromophenyl)(1-hydroxycyclopentyl)metyl]-3-chloro-4-(trifluoromethyl)pyridine-2-carboxamide] the pIC50 was 6.77.
Compound `O=C(NC(c1ccccc1Br)C1(O)CCCC1)c1nccc(C(F)(F)F)c1Cl` (centres unmarked) [Compound 32, N-[(2-bromophenyl)(1-hydroxycyclopentyl)methyl]-3-chloro-4-(trifluoromethyl)pyridine-2-carboxamide] has a pIC50 of 7.22.
`O=C(N[C@@H](c1cccc(Br)c1)C1(O)CCCC1)c1nccc(C(F)(F)F)c1Cl` [Compound 33, N-[(S)-(3-bromophenyl)(1-hydroxycyclopentyl)methyl]-3-chloro-4-(trifluoromethyl)pyridine-2-carboxamide] showed a pIC50 of 7.09.
`O=C(N[C@H](c1cccc(Br)c1)C1(O)CCCC1)c1nccc(C(F)(F)F)c1Cl` [Compound 34, N-[(R)-(3-bromophenyl)(1-hydroxycyclopentyl)methyl]-3-chloro-4-(trifluoromethyl)pyridine-2-carboxamide] showed a pIC50 of 6.00.
For `O=C(N[C@@H](c1cccc(-c2ccccn2)c1)C1(O)CCCC1)c1nccc(C(F)(F)F)c1Cl` [Compound 35, 3-chloro-N-{(S)-(1-hydroxycyclopentyl)[3-(pyridin-2-yl)phenyl]methyl}-4-(trifluoromethyl)pyridine-2-carboxamide], the pIC50 was 7.13.
`O=C(N[C@@H](c1cccc(-c2ncccn2)c1)C1(O)CCCC1)c1nccc(C(F)(F)F)c1Cl` [Compound 36, 3-chloro-N-{(S)-(1-hydroxycyclopentyl)[3-(pyrimidin-2-yl)phenyl]methyl}-4-(trifluoromethyl)pyridine-2-carboxamide] gave a pIC50 of 6.89.
With `N#Cc1cccc([C@H](NC(=O)c2nccc(C(F)(F)F)c2Cl)C2(O)CCCC2)c1` [Compound 37, 3-chloro-N-[(S)-(3-cyanophenyl)(1-hydroxycyclopentyl)methyl]-4-(trifluoromethyl)pyridine-2-carboxamide] the pIC50 was 6.59.
